Data: ChEMBL document CHEMBL1821601, “Impact of passive permeability and gut efflux transport on the oral bioavailability of novel series of piperidine-based renin inhibitors in rodents” (Bioorg Med Chem Lett, 2011)
Each block holds one compound with its values, some of them ahead of it.

Key:
[1] = (§1) Oral bioavailability in rat at 30 mg/kg; format: ADME, organism-based; details: in vivo
[2] = (§2) Oral bioavailability in rat at 3 mg/kg; format: ADME, organism-based; details: in vivo
[3] = Oral bioavailability in rat at 10 mg/kg; format: ADME, organism-based; details: in vivo
[4] = Plasma clearance in rat at 0.5 mg/kg, iv; format: ADME, organism-based; design: dose 0.5 mg/kg, route intravenous
rat Mdr1a = assay: Apparent permeability across pig LLC-PK1 cells transfected with rat Mdr1a; format: ADME, cell-based, Sus scrofa
[5] = Oral bioavailability in rat at 3 mg/kg pre-dosed with 50 mg/kg, po of Pgp and Bcrp inhibitor elacridar 15 mins before drug challenge; format: ADME, organism-based; details: in vivo
[6] = AUC (0 to 24 hrs) in rat at 3 mg/kg, po pre-dosed with 50 mg/kg, po of Pgp and Bcrp inhibitor elacridar 15 mins before drug challenge; format: ADME, organism-based; design: dose 3 mg/kg, time < 24 hr, route oral; details: plasma
[7] = as §2; format: ADME, organism-based; details: in vivo; remark: listed apart in the source
[8] = Plasma clearance in rat at 5 mg/kg, iv; format: ADME, organism-based; design: dose 5 mg/kg, route intravenous
[9] = AUC (0 to 24 hrs) in FVB mouse expressing wild type MDR1a at 30 mg/kg, po; format: ADME, organism-based; design: time < 24 hr, dose 30 mg/kg, route oral; details: plasma
[10] = Drug uptake in FVB mouse expressing wild type MDR1a brain at 30 mg/kg, po after 24 hrs; format: ADME, organism-based; design: dose 30 mg/kg, route oral; details: read-out: Drug uptake
[11] = Drug uptake in FVB mouse expressing wild type MDR1a brain at 5 mg/kg, iv after 24 hrs; format: ADME, organism-based; design: dose 5 mg/kg, route intravenous; details: read-out: Drug uptake
[12] = Oral bioavailability in FVB mouse expressing wild type MDR1a at 30 mg/kg; format: ADME, organism-based; details: in vivo
[13] = Blood clearance in FVB mouse expressing wild type MDR1a at 30 mg/kg, po and 5 mg/kg, iv; format: ADME, organism-based; details: whole blood
Mus musculus [14] = assay: Volume of distribution at steady state in FVB mouse expressing wild type MDR1a at 30 mg/kg, po and 5 mg/kg, iv; format: ADME, organism-based; details: in vivo
[15] = AUC (0 to 24 hrs) in MDR1a-deficient FVB mouse at 30 mg/kg, po; format: ADME, organism-based; design: time < 24 hr, dose 30 mg/kg, route oral; details: plasma
[16] = Drug uptake in MDR1a-deficient FVB mouse brain at 30 mg/kg, po after 24 hrs; format: ADME, organism-based; design: dose 30 mg/kg, route oral; details: read-out: Drug uptake
[17] = Drug uptake in MDR1a-deficient FVB mouse brain at 5 mg/kg, iv after 24 hrs; format: ADME, organism-based; design: dose 5 mg/kg, route intravenous; details: read-out: Drug uptake
[18] = Oral bioavailability in MDR1a-deficient FVB mouse at 30 mg/kg; format: ADME, organism-based; details: in vivo
[19] = Blood clearance in MDR1a-deficient FVB mouse at 30 mg/kg, po and 5 mg/kg, iv; format: ADME, organism-based; details: whole blood
Mus musculus [20] = assay: Volume of distribution at steady state in MDR1a-deficient FVB mouse at 30 mg/kg, po and 5 mg/kg, iv; format: ADME, organism-based; details: in vivo
Mus musculus [21] = assay: Ratio of AUC (0 to 24 hrs) in MDR1a-deficient FVB mouse to AUC (0 to 24 hrs) in FVB mouse expressing wild type MDR1a at 30 mg/kg, po; format: ADME, organism-based; design: dose 30 mg/kg, route oral; details: in vivo
Brain [22] = assay: Ratio of drug uptake in MDR1a-deficient FVB mouse brain to drug uptake in FVB mouse expressing wild type MDR1a brain at 30 mg/kg, po after 24 hrs; format: ADME, organism-based; design: dose 30 mg/kg, route oral; details: in vivo
Brain [23] = assay: Ratio of drug uptake in MDR1a-deficient FVB mouse brain to drug uptake in FVB mouse expressing wild type MDR1a brain at 5 mg/kg, iv after 24 hrs; format: ADME, organism-based; design: dose 5 mg/kg, route intravenous; details: in vivo
Mus musculus [24] = assay: Ratio of oral bioavailability in MDR1a-deficient FVB mouse to oral bioavailability in FVB mouse expressing wild type MDR1a at 30 mg/kg; format: ADME, organism-based; details: in vivo
Mus musculus [25] = assay: Ratio of blood clearance in MDR1a-deficient FVB mouse to blood clearance in FVB mouse expressing wild type MDR1a at 30 mg/kg, po and 5 mg/kg, iv; format: ADME, organism-based; details: in vivo
Mus musculus [26] = assay: Ratio of volume of distribution at steady state in MDR1a-deficient FVB mouse to volume of distribution at steady state in FVB mouse expressing wild type MDR1a at 30 mg/kg, po and 5 mg/kg, iv; format: ADME, organism-based; details: in vivo
[27] = Lipophilicity, Log D of the compound at pH 7 by RP-HPLC analysis; format: physicochemical; details: buffer
[28] = Apparent Passive permeability across pig LLC-PK1 cells; format: ADME, cell-based, Sus scrofa
[29] = Plasma clearance in rat at 30 mg/kg, po and 5 mg/kg, iv; format: ADME, organism-based
[30] = Plasma clearance in dog at 3 mg/kg, po and 1 mg/kg, iv; format: ADME, organism-based, Canis lupus familiaris
[31] = as §1; format: ADME, organism-based; details: in vivo; remark: listed apart in the source
[32] = Oral bioavailability in dog at 3 mg/kg; format: ADME, organism-based, Canis lupus familiaris; details: in vivo
[33] = Drug recovery in permanently bile-duct cannulated rat bile supplimented with artificial bile at 20 mg/kg, po after 48 hrs by HPLC-MS/MS analysis; format: ADME, organism-based; design: dose 20 mg/kg, route oral; details: read-out: Drug uptake
[34] = Drug recovery in permanently bile-duct cannulated rat urine supplimented with artificial bile at 20 mg/kg, po after 48 hrs by HPLC-MS/MS analysis; format: ADME, organism-based; design: dose 20 mg/kg, route oral; details: read-out: Drug uptake
[35] = Drug recovery in permanently bile-duct cannulated rat feces supplimented with artificial bile at 20 mg/kg, po after 48 hrs by HPLC-MS/MS analysis; format: ADME, organism-based; design: dose 20 mg/kg, route oral; details: faeces, read-out: Drug uptake
[36] = Drug recovery in permanently bile-duct cannulated rat bile supplimented with artificial bile at 5 mg/kg, iv after 48 hrs by HPLC-MS/MS analysis; format: ADME, organism-based; design: dose 5 mg/kg, route intravenous; details: read-out: Drug uptake
[37] = Drug recovery in permanently bile-duct cannulated rat urine supplimented with artificial bile at 5 mg/kg, iv after 48 hrs by HPLC-MS/MS analysis; format: ADME, organism-based; design: dose 5 mg/kg, route intravenous; details: read-out: Drug uptake
[38] = Drug recovery in permanently bile-duct cannulated rat feces supplimented with artificial bile at 5 mg/kg, iv after 48 hrs by HPLC-MS/MS analysis; format: ADME, organism-based; design: dose 5 mg/kg, route intravenous; details: faeces, read-out: Drug uptake
[39] = Drug recovery in permanently bile-duct cannulated rat supplimented with artificial bile at 20 mg/kg, po after 48 hrs by HPLC-MS/MS analysis; format: ADME, organism-based; design: dose 20 mg/kg, route oral; details: in vivo, read-out: Drug uptake
[40] = Drug recovery in permanently bile-duct cannulated rat supplimented with artificial bile at 5 mg/kg, iv after 48 hrs by HPLC-MS/MS analysis; format: ADME, organism-based; design: dose 5 mg/kg, route intravenous; details: in vivo, read-out: Drug uptake
LLC-PK1 = assay: Ratio of permeability from basolateral to apical side to apical to basolateral side of pig LLC-PK1 cells transfected with rat Mdr1a; format: ADME, cell-based, Sus scrofa
[41] = Oral bioavailability in rat at 0.3 mg/kg pre-dosed with 50 mg/kg, po of Pgp and Bcrp inhibitor elacridar 15 mins before drug challenge; format: ADME, organism-based; details: in vivo
[42] = Oral bioavailability in rat at 0.3 mg/kg; format: ADME, organism-based; details: in vivo
[43] = Cmax in rat plasma at 3 mg/kg, po; format: ADME, organism-based; design: dose 3 mg/kg, route oral

Structure (SMILES): COCCCc1cc(Cl)c(Cl)c(CN(C(=O)[C@H]2CNCC[C@@H]2c2ccn(C)c(=O)c2)C2CC2)c1
bioavailability [1]: 24%
bioavailability [2]: 2%
bioavailability [3]: 21%
clearance [4]: 57 mL/min/kg
Papp (rat Mdr1a): 3 ×10⁻⁶ cm/s
bioavailability [5]: 20%
AUC(0-t) at 24 h [6]: 0.033 µM·h
bioavailability [7]: 2%
clearance [8]: 67 mL/min/kg

Structure (SMILES): COCCCc1cc(CN(C(=O)[C@H]2CNCC[C@@H]2c2ccn(C)c(=O)c2)C2CC2)cc(Br)c1C
bioavailability [1]: 17%
bioavailability [2]: 6%
bioavailability [3]: 7%
clearance [4]: 125 mL/min/kg
Papp (rat Mdr1a): 2 ×10⁻⁶ cm/s
AUC(0-t) at 24 h [9]: 0.8 µM·h
concentration at 24 h [10]: 8 nM
concentration at 24 h [11]: 7.3 nM
bioavailability [12]: 7%
clearance [13]: 82 mL/min/kg
Vdss (Mus musculus [14]): 3.7 L/kg
AUC(0-t) at 24 h [15]: 4 µM·h
concentration at 24 h [16]: 504 nM
concentration at 24 h [17]: 239 nM
bioavailability [18]: 29%
clearance [19]: 72 mL/min/kg
Vdss (Mus musculus [20]): 4.7 L/kg
fold change (FC) (Mus musculus [21]): 5
fold change (FC) (Brain [22]): 63
fold change (FC) (Brain [23]): 32
fold change (FC) (Mus musculus [24]): 4
fold change (FC) (Mus musculus [25]): 0.9
fold change (FC) (Mus musculus [26]): 1.3
bioavailability [5]: 31%
AUC(0-t) at 24 h [6]: 0.044 µM·h
bioavailability [7]: 3%
clearance [8]: 75 mL/min/kg

Structure (SMILES): COCCc1ccc(Cl)c(CN(C(=O)[C@H]2CNCC[C@]2(O)c2ccc(F)c(F)c2)C2CC2)c1
bioavailability [2]: 16%
logD [27]: 3.1
Papp [28]: 11 ×10⁻⁶ cm/s

Structure (SMILES): COCCc1ccc(Cl)c(CN(C(=O)[C@H]2CNCC[C@@H]2c2ccn(C)c(=O)c2)C2CC2)c1
bioavailability [2]: 1%
logD [27]: 1
Papp [28]: 1 ×10⁻⁶ cm/s

Structure (SMILES): COc1cc2c(cc1OC)CN(CCc1ccc(NC(=O)c3cccc4c(=O)c5cccc(OC)c5[nH]c34)cc1)CC2 [ELACRIDAR]
Cmax [43]: 200 nM

The remaining lines, values ahead:

clearance [29]: 11 mL/min/kg
clearance [30]: 26 mL/min/kg
bioavailability [31]: 27%
bioavailability [32]: 44%
Structure (SMILES): COCCCc1cc(CN(C(=O)[C@H]2CNCC[C@@H]2c2ccc(OCCOc3c(Cl)cc(C)cc3Cl)cc2)C2CC2)cc(OCCOC)c1.Cl

bioavailability [1]: 3%
clearance [29]: 31 mL/min/kg
clearance [30]: 9.2 mL/min/kg
bioavailability [31]: 3%
bioavailability [32]: 1%
dose excreted at 48 h [33]: 0.1%
dose excreted at 48 h [34]: 2%
dose excreted at 48 h [35]: 73%
dose excreted at 48 h [36]: 25%
dose excreted at 48 h [37]: 10%
dose excreted at 48 h [38]: 10%
dose excreted at 48 h [39]: 75%
dose excreted at 48 h [40]: 45%
bioavailability [2]: 0.5%
clearance [4]: 43 mL/min/kg
Papp (rat Mdr1a): < 3 ×10⁻⁶ cm/s
logD [27]: 0.9
Papp [28]: 2 ×10⁻⁶ cm/s
clearance [8]: 31 mL/min/kg
Structure (SMILES): COCCCc1cc(CN(C(=O)[C@H]2CNCC[C@@H]2c2ccn(C)c(=O)c2)C2CC2)cc(OCCOC)c1.Cl

bioavailability [2]: 29%
Papp (rat Mdr1a): 22 ×10⁻⁶ cm/s
bioavailability [5]: 24%
bioavailability [7]: 29%
Ratio (LLC-PK1): 19
bioavailability [41]: 14%
bioavailability [42]: 17%
logD [27]: 2.6
Papp [28]: 22 ×10⁻⁶ cm/s
Structure (SMILES): COCCOc1cc(CCOC)cc(CN(C(=O)[C@H]2CNCC[C@]2(O)c2ccc(F)c(F)c2)C2CC2)c1
